Experiments:
[1] = system: 15N-labeled RNA 2 (RNA, riboswitch) CCGGCAUAGCUUGUCCUUUAAUGGUCCUAUGUCGAAAAUG; assay: 1H NMR imino proton titration; details: Na+ (25 mM NaCl, 15 mM sodium phosphate); pH 6.5, 15 °C, 10% D2O, 280 μM RNA, 0-4.5 equivalents; slow exchange in 0-1 equivalent range
[2] = system: RNA 2 (RNA, riboswitch) CCGGCAUAGCUUGUCCUUUAAUGGUCCUAUGUCGAAAAUG; assay: native ESI MS with CAD top-down MS (FT-ICR); details: NH4+ 50 mM (ammonium bicarbonate), no divalent ions; 9:1 H2O/CH3OH, 0.25 mM piperazine, pH ~7.5; 1 μM RNA, 1-5 μM neomycin B; fourth molecule unspecific
[3] = system: RNA 3 (RNA, riboswitch) CCGUCAUAGCUUGUCCUUUAAUGGUCCUAUGACGAAAAUG; assay: native ESI MS with CAD top-down MS (FT-ICR); details: NH4+ 50 mM (ammonium bicarbonate), no divalent ions; 9:1 H2O/CH3OH, 0.25 mM piperazine, pH ~7.5; 1 μM RNA, 1-5 μM neomycin B
[4] = system: RNA 4 (RNA, riboswitch) CCCUGAUAGCUUGUCCUUUAAUGGUCCUAUCUGGAAAAUG; assay: native ESI MS with CAD top-down MS (FT-ICR); details: NH4+ 50 mM (ammonium bicarbonate), no divalent ions; 9:1 H2O/CH3OH, 0.25 mM piperazine, pH ~7.5; 1 μM RNA, 1-5 μM neomycin B
[5] = system: RNA 5 (RNA, riboswitch) CCGGCAUAGCUUCUCCUUUAAUGGUCCUAUGUCGAAAAUG; assay: native ESI MS with CAD top-down MS (Orbitrap); details: motif C occupancy reduced to ~60% in 1:3 complexes

Measured: binding

NC[C@@H]1O[C@H](O[C@H]2[C@@H](O)[C@H](O[C@@H]3[C@@H](O)[C@H](N)C[C@H](N)[C@H]3O[C@H]3O[C@H](CN)[C@@H](O)[C@H](O)[C@H]3N)O[C@@H]2CO)[C@H](N)[C@@H](O)[C@@H]1O
yes: all assays above

Reference: article PMC11077050 (2024)
